In patent publication US20110071142A1, “IDENTIFICATION AND USE OF SMALL MOLECULES TO MODULATE TRANSCRIPTION FACTOR FUNCTION AND TO TREAT TRANSCRIPTION FACTOR ASSOCIATED DISEASES” (BETH ISRAEL DEACONESS MEDICAL CENTER, priority 2007, published 2011):
Like-named read-outs stand apart in the source and are kept apart here.

Tests used:
[1] = test system: Ets-1 transactivation; experiment: Reporter gene transactivation assays (transient transfection); assay type: cell-based, Human
Experimental: Several downstream targets of Ets-1 including the MCP-1 gene, PAI1, and Flt-1 (49, 142) have been identified. To further define the specificity of small molecules that inhibit DNA binding of Ets-1 in EMSAs, their ability is evaluated with regard to inhibiting transactivation of the MCP-1, PAI-1, and Flt-1 promoters by Ets-1, without affecting the basal activity of the promoter. As controls, the endothelial-specific promoters Tie1 and Tie2 are used, that have been previously shown as targets of the Ets factors NERF2 and Elf-1, but not Ets-1 or Ets-2 (142, 146). The promoters of these genes have previously been subcloned into the PGL2 luciferase reporter (Promega). Similarly, we have previously subcloned the
cDNAs encoding the ETS factors Ets-1, Ets-2, NERF2, and Elf-1 into the PCI mammalian expression plasmid.
Human embryonic kidney cells (HEK 293) are cultured as previously described (147). HEK 293 cells are kidney epithelial cells that express low basal levels of Ets-1, and are easily transfected. Cotransfections of 2×10^5 HEK 293 cells are carried out with 0.3 μg of the reporter gene construct DNA and 0.15 μg of the mammalian expression vector encoding the selected Ets factors using 4 μl LipofectAMINE (Invitrogen, San Diego, Calif.) as described (148). […]

[2] = test system: Ets-1 expression; experiment: Real time PCR of IL-1 induced Ets-1 expression in HUVECs; assay type: cell-based, Human; conditions: 10 μM, preincubated 1 h, IL-1 10 ng/ml, 2 hr
Experimental: (§1) SYBR Green I-based real-time PCR is carried out on an Opticon Monitor (MJ Research, Inc, Waltham, Mass.). All PCR mixtures contain PCR buffer [final concentration: 10 mM Tris-HCl (pH9.0), 50 mM KCl, 2 mM MgCl2 and 0.1% TritonX-100], 250 μM deoxy-NTP (Roche), 0.5 μM of each PCR primer, 0.5×SYBR Green I,
(§2) 5% DMSO, and 1U Taq DNA polymerase (Promega, Madison, Wis.) with 2 μl cDNA in a 25 μl final volume of reaction mix. Then, the fluorescence signal is measured immediately following incubation at 78° C. for 5 s that follows each extension step, which eliminates possible primer dimer detection. At the end of PCR cycles, a melting curve will be generated to identify specificity of the PCR product. For each run, serial dilutions of human GAPDH plasmids are used as standards for quantitative measurement of the amount of amplified cDNA. For normalization of each sample, GAPDH primers are used to measure the GAPDH cDNA levels. Cytotoxicity Evaluation of “hit” Compounds Using MTS Assay
(§3) Total RNA was isolated for real time PCR to measure Ets-1 expression levels as well as the IL-1 inducible, Ets-1
(§4) dependent MCP-1 expression levels, following stimulation for 1, 2, 4, 6 and 12 hours. IL-1 induced Ets-1 expression ˜4 fold at 2 hr, however compound #28 reduced Ets-1 induction by greater than 50% during this time frame. […]

[3] = test system: Ets-1 mediated gene expression; experiment: Ets-1 mediated gene expression in HEK293 cells; assay type: cell-based, Human
[4] = target: T1, Ets-1-DNA interaction (Homo sapiens, UniProt P14921); experiment: Electrophoretic mobility shift assay (EMSA) of Ets-1 DNA binding
T1 construct: host or cells: cell-free in vitro translation, rabbit reticulocyte lysate
T1 sequence (P14921 1-441): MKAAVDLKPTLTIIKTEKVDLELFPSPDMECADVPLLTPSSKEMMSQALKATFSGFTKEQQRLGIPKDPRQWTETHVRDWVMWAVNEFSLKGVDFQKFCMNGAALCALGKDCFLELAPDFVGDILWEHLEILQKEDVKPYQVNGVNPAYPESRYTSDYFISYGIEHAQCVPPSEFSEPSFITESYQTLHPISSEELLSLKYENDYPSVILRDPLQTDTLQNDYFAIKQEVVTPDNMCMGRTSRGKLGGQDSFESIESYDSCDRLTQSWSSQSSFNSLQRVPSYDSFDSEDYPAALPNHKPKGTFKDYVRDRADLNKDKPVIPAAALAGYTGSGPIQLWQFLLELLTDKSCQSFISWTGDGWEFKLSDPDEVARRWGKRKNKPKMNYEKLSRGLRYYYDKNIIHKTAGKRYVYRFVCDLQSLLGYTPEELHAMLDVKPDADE
Experimental: Initially it is determined whether the identified small molecule “hits” interfere with Ets-1-DNA binding using electrophoretic mobility shift assays (EMSAs). These are performed as described previously (142). In brief, in vitro translated Ets-1 protein is generated using a rabbit reticulolysate system (Promega) and a mammalian expression plasmid encoding the Ets-1 protein. 1 μl of the in vitro translation reaction and 0.1-0.2
ng [32P]dATP-labeled double-stranded oligonucleotide probe (5,000-10,000 cpm) will be run on 4% polyacrylamide gels containing 0.5×TBE buffer. […] The small molecules identified are initially evaluated at a concentration of 1 mM, which is the concentration used in high throughput fraganomic approaches for evaluating the interaction of weak-binding small molecules (143, 144). Those small molecules that inhibit the Ets-1-DNA interaction will be re-evaluated over a concentration range of 10 μM-1 mM. Solutions containing DMSO alone will be used as a vehicle control. To ensure the small molecule is specifically targeting the Ets-1-DNA interface and not interacting non-specifically with the DNA, a non-specific promoter is included as well as a control small molecule that is not selected as a “hit” by our HTD screen. To further confirm the molecular specificity of these small molecules for targeting Ets-1, EMSAs will be performed with other members of the ETS family. Ethidium bromide displacement assays could also be used to confirm that the small molecules are not nonspecifically targeting the DNA sequence (145).

[5] = test system: MCP-1 expression; experiment: Real time PCR of IL-1 inducible, Ets-1 dependent MCP-1 expression in HUVECs; assay type: cell-based, Human; conditions: 10 μM, preincubated 1 h, IL-1 10 ng/ml
Experimental: as §1, §2, §3, §4

## Nc1ccccc1SC(C[N+](=O)[O-])c1ccc2c(c1)OCO2 (stereo not shown) [Compound 28, 2-{[1-(1,3-benzodioxol-5-yl)-2-nitroethyl]thio}aniline]
[1]
  inhibition of transactivation assays: 8 fold
[2]
  reduction of IL-1 induced Ets-1 induction: greater than 50%
[3]
  decrease of Ets-1 mediated gene expression: 50-60%
[4]
  inhibition of Ets-1 DNA binding: inhibits Ets-1 DNA binding
  inhibits the Ets-1-DNA interaction, concentration range as estimated using EMSAs: low uM range
[4]; FIG. 8 legend: HUVECs preincubated with 10 μM
  inhibition of Ets-1 DNA binding: inhibits Ets-1 DNA binding
[5]
  reduction of IL-1 induced MCP-1 expression: greater than 40%
